Consider 5 compounds from paper PMC9430360 (Microbiology Spectrum, 2022).

Some results are limits rather than exact numbers.

The target of one data set is GI.1c/RHDV FRG 3CLpro (Rabbit hemorrhagic disease virus, UniProt P27410). The data set is described as follows: FRET assay, 3CLpro of GI.1c/RHDV FRG strain. Format: biochemical. The settings on record: 30 min preincubation with 3CLpro, 30 min with substrate, mean ± SEM, at least three experiments, read-out: IC50 GI.Ic/RHDV FRG.
A further data set deals with GI.3P-GI.2 TX1 3CLpro (Rabbit hemorrhagic disease virus 2, UniProt A0A7M4BDB7). Put plainly: FRET assay, 3CLpro of GI.3P-GI.2 TX1 strain. The format is biochemical, GI.3P-GI.2 (RHDV2/b). Conditions: 30 min preincubation with 3CLpro, 30 min with substrate, mean ± SEM, at least three experiments.
Another data set has as its target GII.1/EBHSV G104 3CLpro (European brown hare syndrome virus, UniProt Q96725). Put plainly: FRET assay, 3CLpro of GII.1/EBHSV G104 strain. The format is biochemical.
A further data set concerns the target T1, 3CLpro of GI.3P-GI.2 TX1 (Rabbit hemorrhagic disease virus 2, UniProt A0A7M4BDB7).
T1 sequence (A0A7M4BDB7 1109-1251): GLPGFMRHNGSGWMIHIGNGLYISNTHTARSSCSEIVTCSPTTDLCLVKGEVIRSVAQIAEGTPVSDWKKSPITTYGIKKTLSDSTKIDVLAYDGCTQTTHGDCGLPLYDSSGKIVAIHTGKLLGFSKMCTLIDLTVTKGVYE
Put plainly: cell-based. On the set-up: species or system GI.3P-GI.2 (RHDV2/b).

A short description of data set [1]: Cytotoxicity assay (CytoTox 96, lactate dehydrogenase release). The format is cell-based. The settings on record: human, 293T cells, up to 100 μM. The procedure:
To determine the cytotoxicity of the compounds, 70 to 80% confluent 293T cells in a 96-well plate were incubated with serial dilutions of each compound (up to 100 μM) for 5 h. Cell cytotoxicity was determined by a CytoTox 96 nonradioactive assay kit (Promega, Madison, WI) by measuring a cytosolic enzyme lactate dehydrogenase, which is released upon cell lysis, following the manufacturer’s instructions, and the 50% cytotoxic concentration (CC50) value for each compound was calculated using GraphPad Prism software. The nonspecific cytotoxic effects of these compounds were also reported previously ([30], [31], [40], [43], [44]).

The subject of the next data set is murine norovirus. On the set-up: method as in PMID 25761614. Conditions: intestinal tracts of mice; cited from earlier work.
The test system of a further data set is FIPV 3CLpro. Details: method as in PMID 30342822. Conditions: FRET assay; read-out: IC50 against FIPV 3CLpro; cited from earlier work.
In the next data set the test system is FIP. On the set-up: method as in PMID 27027316, PMID 28901812. Conditions: cited from earlier work.

One may read the EC50 as the concentration that produces a half-maximal response. By CC50 is commonly meant the concentration giving 50% cytotoxicity. Read a low CC50 as harm at low concentration.

Sequence of GI.1c/RHDV FRG 3CLpro (P27410 1109-1251 limits assumed): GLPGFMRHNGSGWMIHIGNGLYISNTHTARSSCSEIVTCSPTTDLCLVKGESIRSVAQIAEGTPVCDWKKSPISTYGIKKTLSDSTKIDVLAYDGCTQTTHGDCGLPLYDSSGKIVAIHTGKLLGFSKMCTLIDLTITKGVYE
Sequence of GII.1/EBHSV G104 3CLpro (Q96725 1102-1244 limits assumed): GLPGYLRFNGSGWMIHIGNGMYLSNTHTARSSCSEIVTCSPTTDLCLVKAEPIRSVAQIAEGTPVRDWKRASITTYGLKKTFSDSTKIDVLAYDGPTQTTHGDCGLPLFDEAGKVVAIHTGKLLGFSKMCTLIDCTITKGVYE

As for `O=C[C@@H](C[C@@H]1CCNC1=O)NC(=O)[C@H](CC1CCCCC1)NC(=O)OCc1ccccc1` [GC543], the IC50 amounted to 90 ± 30 nM on GI.1c/RHDV FRG 3CLpro, 120 ± 70 nM against GI.3P-GI.2 TX1 3CLpro and 70 ± 10 nM against GII.1/EBHSV G104 3CLpro. The same compound came in with an EC50 on 3CLpro of GI.3P-GI.2 TX1 of 550 ± 60 nM. For the same compound, the CC50 at 5 h in data set [1] was > 100000 nM.
Taken in the same sequence, the figures for `O=C(N[C@@H](CC1CCCCC1)C(=O)N[C@H](C[C@@H]1CCNC1=O)C(=O)C(=O)NC1CC1)OCc1cccc(Cl)c1` [GC591] were 590 ± 40 nM, 730 ± 270 nM, 430 ± 70 nM, 9800 ± 1260 nM and > 100000 nM.
Take `O=C[C@@H](C[C@@H]1CCNC1=O)NC(=O)[C@H](CC1CCCCC1)NC(=O)OCc1cccc(Cl)c1` [GC583]: the IC50 on GI.1c/RHDV FRG 3CLpro was 80 ± 20 nM; against GI.3P-GI.2 TX1 3CLpro it was 100 ± 80 nM; at GII.1/EBHSV G104 3CLpro, 50 ± 10 nM. On 3CLpro of GI.3P-GI.2 TX1, this compound returned an EC50 of 460 ± 50 nM. Moreover, the CC50 at 5 h in data set [1] was > 100000 nM. In addition, the “in vivo efficacy, murine norovirus replication” value with murine norovirus is on record as “significantly decreasing murine norovirus replication in the intestinal tracts of mice without toxicity”.
On to `CC(C)CC(NC(=O)C(Cc1cccc2ccccc12)NC(=O)OCc1ccccc1)C(=O)NC(C=O)CC1CCNC1=O` (stereo not shown) [NPI52], for which the figures for the IC50 on GI.1c/RHDV FRG 3CLpro, at GI.3P-GI.2 TX1 3CLpro and against GII.1/EBHSV G104 3CLpro were 310 ± 20 nM, 570 ± 360 nM and 300 ± 90 nM, respectively. Besides, the EC50 at 3CLpro of GI.3P-GI.2 TX1 was found to be 4000 ± 430 nM. The CC50 at 5 h in data set [1] was > 100000 nM.
As to `CC(C)C[C@H](NC(=O)OCc1ccccc1)C(=O)N[C@H](C[C@@H]1CCNC1=O)C(O)S(=O)(=O)O` (stereo partly shown) [GC376], the IC50 is 1210 nM at GI.1c/RHDV FRG 3CLpro, 1390 nM at GI.3P-GI.2 TX1 3CLpro, 1000 nM against GII.1/EBHSV G104 3CLpro and 500 nM in the data set with FIPV 3CLpro. For the same compound, on 3CLpro of GI.3P-GI.2 TX1, it took 5350 ± 140 nM to reach a half-maximal effect (EC50). The CC50 at 5 h in data set [1] was > 100000 nM. Further, the “in vivo efficacy in cats with FIP” value in the data set on FIP is “reduced viral replication and improved survival”.
